Measured values: US20200297015A1, “TRYPTOPHAN DERIVATIVES AS SWEETENERS” (CHROMOCELL CORPORATION, priority 2017, published 2020)
One block for each compound: values may come before it.

Tests used:
[1] = tested on: sweetness intensity in humans; test: Discriminative sensory evaluation of sweetness intensity, two-alternative forced choice sip and spit (2AFC) in water; assay type: in vivo, human
Description: The test compounds were evaluated for sweetness intensity in a aqueous solution in humans using a two-alternative forced choice “sip and spit” method (2AFC).
Preparation of Samples for Sensory Taste Tests: • Control Sample: Sucrose (various levels) • Variant Sample: Compound 1, 5 and 8
The control samples for the discrimination taste test were prepared by dissolving the sucrose directly in water at the indicated test concentrations Variant sample containing Compound 1 was prepared by dissolving Compound i directly in water at the desired concentration. Variant sample containing Compound 5 and 8 were prepared by dissolving the respective sodium salts of the compounds directly in water (refer to Example 4).
The 2AFC test used for compound evaluation was a double blinded and randomized test where taste panelists (n≥12) evaluate a pair of sweetened solutions at a time—one sample is sweetened with sucrose (i.e. control) while the other sample is sweetened with the test compound (i.e. variant). Panelists were instructed not to eat or drink (except water) for at least 1 h before the test. During the test, panelists were instructed to sip each sample, swirl it around their mouth and then expectorate. After tasting each sample in the pair, panelists were instructed to record the sample that is “sweeter” in taste. Panelists cleansed their palates by rinsing with water, eating a cracker and waiting for an interval of about 5 minutes. All samples were tasted at ambient temperatures. Data were analyzed using binomial probabilities.

sweet taste = conditions: Optimising Sweet Taste in Foods, 2006; cited from earlier work
[2] = tested on: sweetness intensity (expert tasters); test: Reference scaling of sweetness intensity against sucrose references by expert tasters; assay type: in vivo, human; conditions: for Sweetness Intensity (avg): @ 1000 ppm, ranked against sucrose references (5%, 7.5%, 10%), n>5
Description: (§1) Preparation of Samples for Taste Tests: • Control Sample: 250 ppm, 500 ppm and 1000 ppm of D-Tryptophan • Variant Sample: 250 ppm, 500 ppm and 1000 ppm of Compound 5 Samples for the taste test were prepared by dissolving, both the control and variant samples, directly in water at the desired test concentrations.
In another test, expert tasters (n>5) also tasted Compound 5 and Control Samples to a set of sucrose references (5%, 7.5%, 10%) and ranked the Test and Control samples for sweetness intensity compared to sucrose references. At the same concentration, Compound 5 achieves higher (close to 2 fold) potency compared to Control compound.

[3] = tested on: sweetness intensity (expert tasters); test: Sweetness potency comparison vs D-Tryptophan, paired comparison by expert tasters; assay type: in vivo, human; conditions: in water, n>5
Description: The sweetness potency of the test compound was compared D-Tryptophan to understand potency differences between the test compound and non-methylated variants of D-tryptophan.
as §1
Expert tasters (n>5) tasted the control and test samples in a blinded experiment and assessed sweetness intensity (at the same concentration) via paired comparison. Each taster evaluated a pair of sweetened solutions at a time—one sample is sweetened with Control compound (i.e. control) while the other sample is sweetened with the test compound (i.e. variant). After tasting each sample in the pair, tasters were instructed to record the sample that is “sweeter” in taste. All samples were tasted at ambient temperatures.

[4] = Solubility: concentrated stock by conversion to sodium salt form; assay type: physicochemical; conditions: for concentrated stock compared to the free base form: sodium salt form vs free base form; for concentrated solution prepared: sodium salt form, with 5.5% by weight sodium hydroxide in de-ionized water, vortex and sonication 30-120 s
Source text: Compounds 5 and 8 have been prepared at an increased concentration for commercial applications by converting them into their respective sodium salt forms. The process of converting to a salt form was obtained by dissolving the Compounds in water and adding a set quantity of sodium hydroxide or potassium hydroxide solution. A concentrated solution of 30% by weight of Compound 5 and 8 has been prepared by this method. This has been achieved by combining 30%, by weight, of Compound 5 or Compound 8 with 5.5%, by weight, of sodium hydroxide in de-ionized water. The mixture is subjected to intermittent vortex and sonication for a duration of 30-120 s. This process achieves a 300 times concentrated stock compared to the free base form of Compound 5 and 8, thereby enabling delivery of an increased concentration of the compounds in a model beverage/matrix. The sodium/potassium salt can increase solubility by changing neutral zwitterion to more hydrophilic negative charged anion.

[5] = tested on: perception of sweet taste in humans; test: Descriptive Analysis (DA) sensory evaluation by trained panel, aqueous matrix; assay type: in vivo, human; conditions: for Bitter @ 18 sec / Bitter @ 1 min / Bitter @ 1 min 30 s / Bitter @2 min / Bitter @3 min / Sweet @ 18 sec / Sweet @ 1 min / Sweet @ 1 min 30 s / Sweet @ 2 min: intensity on 15 cm scale; for Bitter @ 18 sec / Bitter @ 1 min / Bitter @ 1 min 30 s / Bitter @2 min / Bitter @3 min / Sweet @ 18 sec / Sweet @ 1 min / Sweet @ 1 min 30 s / Sweet @ 2 min / Sweet AT: in water, 500 ppm Rebaudioside M (control), 1500 ppm Compound 5 (variant), n≥12; for Sweet AT: sweet appearance time
Description: The effect of the test compound on the perception of sweet taste in an aqueous matrix was evaluated using a descriptive analysis methodology with a group of trained panelists, as follows.
Preparation of Samples for Sensory Taste Tests: • Control Sample: 500 ppm Rebaudioside M • Variant Sample: 1500 ppm Compound 5 Samples for the descriptive analysis taste test were prepared by dissolving, both the control and variant samples, directly in water at the desired test concentrations.
The taste test panelists used in Example I were selected using a sensory acuity screening program and then trained in descriptive analysis taste testing. Candidate panelists were recruited, with prescreening and personal interviews, and were assessed for their ability to detect, recognize and differentiate basic taste attributes or mixtures thereof as part of a standardized acuity test. These candidate panelists were also assessed for their innate ability to identify flavors, and to rank on intensity scales. Other senses such as smell and vision were also included as part of the assessment. Candidates also were screened for their ability to use the language to describe and articulate ideas.
The method was performed as a double blinded, randomized test, where trained Descriptive Analysis taste panelists (n≥12) profiled the maximum intensity perceived at 18 seconds, of the control sample and the variant sample for the following 3 attributes; sweet, bitter and sweet appearance time. In addition to the maximum intensity, the panelists continued to assess sweet and bitter intensity (at 1 min, 1.5 min, 2 min, and 3 min), to generate a discontinuous time scale Intensity profile (TSI) of sweet and bitter percepts to gain an understanding of the taste profile of the control and variant samples. Each panelist scored sweetness intensity on a 15 cm scale, with the control and variant sample being determined to be iso-sweet by ANOVA at 18 seconds.

Compound: Cc1cccc2[nH]cc(CC(N)C(=O)O)c12 (centres unmarked) [Compound 1, 2-amino-3-(4-methyl-1H-indol-3-yl)propanoic acid]
- Number picking Variant ([1]; Compound 1 @ 1000 ppm vs 10% Sucrose, in water, Total Number 38): 25

Compound: N[C@H](Cc1c[nH]c2cc(Cl)ccc12)C(=O)O [6-chloro-D-tryptophan]
- sweeter than sucrose (sweet taste): 1000 times

Compound: N[C@H](Cc1c[nH]c2ccccc12)C(=O)O [Control, D-Tryptophan, reference compound]
- Sweetness Intensity (avg) [2]: 5.83% Sucrose equivalent

- concentrated stock compared to the free base form [4]: 300 times
- concentrated solution prepared [4]: 30 % by weight
Compound: Cc1ccc2[nH]cc(C[C@@H](N)C(=O)O)c2c1 [Compound 5, (R)-2-amino-3-(5-methyl-1H-indol-3-yl)propanoic acid]
- Sweetness Intensity (avg) [2]: 9.25% Sucrose equivalent
- potency compared to Control compound ([2]; at the same concentration, Control = D-Tryptophan): ~2 fold
- % picking Test as “sweeter” ([3]; Compound 5 @ 250 ppm vs Control (D-Tryptophan) @ 250 ppm): 100%
- % picking Test as “sweeter” ([3]; Compound 5 @ 500 ppm vs Control (D-Tryptophan) @ 500 ppm): 100%
- % picking Test as “sweeter” ([3]; Compound 5 @ 1000 ppm vs Control (D-Tryptophan) @ 1000 ppm): 100%
- Number picking Variant ([1]; Compound 5 @ 2000 ppm (sodium salt dissolved in water) vs 12% Sucrose, Total Number 38): 26
- lingering effects, sweet and bitter, as compared to the Rebaudioside M sample ([5]; by ANOVA, at multiple time points, 1500 ppm Compound 5 vs 500 ppm Rebaudioside M): significantly less
- Bitter @ 18 sec [5]: 2.2
- Bitter @ 1 min [5]: 1.2
- Bitter @ 1 min 30 s [5]: 0.5
- Bitter @2 min [5]: 0.1
- Bitter @3 min [5]: 0.1
- Sweet @ 18 sec [5]: 10.8
- Sweet @ 1 min [5]: 6.5
- Sweet @ 1 min 30 s [5]: 4.6
- Sweet @ 2 min [5]: 3
- Sweet AT [5]: 4.8

Compound: C=C1C[C@@]23CC[C@H]4[C@@](C)(CCC[C@@]4(C)C(=O)O[C@@H]4O[C@H](CO)[C@@H](O)[C@H](O[C@@H]5O[C@H](CO)[C@@H](O)[C@H](O)[C@H]5O)[C@H]4O[C@@H]4O[C@H](CO)[C@@H](O)[C@H](O)[C@H]4O)[C@@H]2CC[C@]1(O[C@@H]1O[C@H](CO)[C@@H](O)[C@H](O[C@@H]2O[C@H](CO)[C@@H](O)[C@H](O)[C@H]2O)[C@H]1O[C@@H]1O[C@H](CO)[C@@H](O)[C@H](O)[C@H]1O)C3 [Rebaudioside M, reference compound]
- Bitter @ 18 sec [5]: 3.3
- Bitter @ 1 min [5]: 2.2
- Bitter @ 1 min 30 s [5]: 1.4
- Bitter @2 min [5]: 0.7
- Bitter @3 min [5]: 0.3
- Sweet @ 18 sec [5]: 10.7
- Sweet @ 1 min [5]: 7.2
- Sweet @ 1 min 30 s [5]: 5.3
- Sweet @ 2 min [5]: 3.6
- Sweet AT [5]: 5.9

- concentrated stock compared to the free base form [4]: 300 times
- concentrated solution prepared [4]: 30 % by weight
Compound: Cc1[nH]c2ccccc2c1C[C@@H](N)C(=O)O [Compound 8, (R)-2-amino-3-(2-methyl-1H-indol-3-yl)propanoic acid]
- Number picking Variant ([1]; Compound 8 @ 3000 ppm (sodium salt dissolved in water) vs 8% Sucrose, Total Number 20): 11
